The values below come from patent US6187754A, “Sialyl-Lewisa and sialyl-Lewisx epitode analogues” (GlycoTech Corp., priority 1996, dated 2001).

Data set [1] in a line: Remark on solubility in NMR characterisation. The conditions noted are these: CD3OD-D2O-CDCl3 (NMR solvent); no 13C NMR. The class given is physicochemical.
The nature of data set [2]: Remark on oxidation sensitivity in NMR characterisation. The class given is physicochemical. Conditions: no long-term 13C-NMR measurement.

Turning to `COC(=O)CCCCCCCCO[C@@H]1O[C@H](CO)[C@@H](O[C@@H]2O[C@H](CO)[C@H](O)[C@H](O[C@]3(C(=O)O)C[C@H](O)[C@@H](NC(C)=O)[C@H]([C@H](O)[C@H](O)CO)O3)[C@H]2O)[C@H](O)[C@H]1NC(=O)c1cnc2nc(N)nc(O)c2n1` [(59)], in data set [1], the solubility entry is “poor solubility”.
Regarding `COC(=O)CCCCCCCCO[C@@H]1O[C@H](CO)[C@@H](O)[C@H](O[C@@H]2O[C@H](CO)[C@H](O)[C@H](O[C@]3(C(=O)O)C[C@H](O)[C@@H](NC(C)=O)[C@H]([C@H](O)[C@H](O)CO)O3)[C@H]2O)[C@H]1NC(=O)c1ccc(O)c(O)c1` [(73)], the “sensitivity to oxidation in organic solvents” value in data set [2] is listed as “sensitivity of the compound to oxidation in organic solvents”.
